Columns and labels:
[1] = native hormone; cited from earlier work
Excerpt: Gonadotropin-releasing hormone (GnRH) is a decapeptide released by hypothalamic neurons, which stimulates GnRH-mediated pituitary secretion of both luteinizing hormone (LH) and follicle-stimulating hormone (FSH). […] Goserelin, buserelin, and triptorelin are GnRH agonists, a relatively new class of drugs. The long-term administration of these agonists results in a significant decrease in estrogen and testosterone blood levels. ...

clinical = details: male, human, in vivo, sc
Method: (§1) A 1000 μL volume of blank plasma was placed in a 2 mL Eppendorf tube. Then, 10 μL of internal standard solution (50 μg/mL) was added to the tube, and the mixture was vortexed. An amount of 100 μL of the resulting sample was then transferred to another centrifuge tube, and 200 μL of methanol/deionized water/formic acid (60:40:0.08) mixture was added, followed by 500 μL of methanol. The sample was then centrifuged at 14,500 rpm for 15 min.
(§2) For the solid-phase extraction (SPE), the SPE cartridge was pre-treated with 1 mL methanol, followed by 1 mL of deionized water. The sample mixture was diluted with 500 μL of deionized water and gently loaded onto an SPE Oasis® HLB 1cc 30 mg cartridge (Waters Corporation, Milford, MA, USA). The SPE cartridge was washed with 1 mL deionized water, followed by 1 mL of methanol/deionized water (60:40) mixture. The sample was then eluted with 1 mL 0.1% formic acid (methanol solution) and evaporated to dryness (for 20 min) at 45 °C under a stream of nitrogen. The dry residue was then reconstituted with 100 μL of methanol/deionized water/formic acid (60:40:0.08) mixture.
(§3) The chromatographic separation was performed on a Jupiter® C18 column (5 μm, 50 × 4.6 mm 300 Å) (Phenomonex, Torrance, CA, USA). The mobile phase consisted of 0.1% v/v formic acid aqueous solution (solvent A) and 0.1% v/v formic acid in acetonitrile (solvent B). The mobile phase composition was changed gradually in a gradient elution (Table 5) with a constant flow rate of 1.2 mL/min. The temperature of the column oven was kept at 30 °C. After the sample preparation procedure, 30 μL of supernatant was injected into the LC-MS/MS system.
(§4) Detection was performed with triple quadruple tandem mass spectrometry in the positive ion mode (5 kW) using the MRM mode. Nitrogen was used as a nebulizer (3 L/h) and drying (20 L/h) gas. The desolvation temperature was set at 200 °C, and the source temperature was 400 °C.

[2] = LC-MS/MS quantitation of GnRH analogs in blood plasma of prostate cancer patients (therapeutic monitoring); details: patients on goserelin therapy; conclusion from the obtained data
Method: as §1, §2, §3, §4

Compound	Half-life [1]	level at 8 day of a 28-day dosing cycle (clinical; 3.6 mg) [ng/mL]	level at 16 day of a 28-day dosing cycle (clinical; 3.6 mg) [ng/mL]	level at 10 day of an 84-day dosing cycle (clinical; 10.8 mg) [ng/mL]	level at 29 day of an 84-day dosing cycle (clinical; 10.8 mg) [ng/mL]	level at 59 day of an 84-day dosing cycle (clinical; 10.8 mg) [ng/mL]	Time at which plasma concentration starts to increase [2]
Gonadotropin-releasing hormone [GnRH]	several minutes	–	–	–	–	–	–
CC(C)C[C@H](NC(=O)[C@@H](COC(C)(C)C)NC(=O)[C@H](Cc1ccc(O)cc1)NC(=O)[C@H](CO)NC(=O)[C@H](Cc1c[nH]c2ccccc12)NC(=O)[C@H](Cc1cnc[nH]1)NC(=O)[C@@H]1CCC(=O)N1)C(=O)N[C@@H](CCCNC(=N)N)C(=O)N1CCC[C@H]1C(=O)NNC(N)=O [Goserelin, Goserelin acetate]	–	0.95	16.2	7.81	13.6	0.55	second week

— publication PMC9695356, “Development and Validation of an LC-MS/MS Method for Simultaneous Determination of Short Peptide-Based Drugs in Human Blood Plasma” (Molecules, 2022)
